Values of other authors, collected in patent US20180028452A1, “ANTIEMETIC EXTENDED RELEASE SOLID DOSAGE FORMS” (RedHill Biopharma Ltd., priority 2013, published 2018).
Where a name gives a salt, the structure may show the parent alone.

Experiments:
[1] = water and normal saline
[2] = scale of Pliska et al., J. Chromatog. 216, 79, 1981

| solubility [1] | hydropathy value (relative hydrophobic character) [2] | SMILES |
| --- | --- | --- |
| soluble in water and normal saline |  | Cc1nccn1CC1CCc2c(c3ccccc3n2C)C1=O (racemic) [Ondansetron HCl dihydrate, Ondansetron hydrochloride] |
|  | −2.15 | N[C@@H](CC(=O)O)C(=O)O [aspartic acid] |
|  | 0 | NCC(=O)O [glycine] |
|  | 1.83 | CC[C@H](C)[C@H](N)C(=O)O [iso-leucine] |
